According to patent US20250092056A1, “URACIL DERIVATIVES HAVING VIRUS REPLICATION INHIBITORY ACTIVITY AND PHARMACEUTICAL COMPOSITION COMPRISING THE SAME” (Shionogi & Co., Ltd., priority 2022, published 2025):
Where two headings read alike, the source gives them in different places.

What was measured:
[1] = target: Recombinant SARS-CoV-2 3CL Protease (Severe acute respiratory syndrome coronavirus 2 (2019-nCoV) (SARS-CoV-2), UniProt P0DTD1); experiment: biochemical; format: biochemical; conditions: 50% SARS-CoV-2 3CL protease inhibitory concentration; read-out: IC50
[2] = tested on: SARS-CoV-2; experiment: Cytopathic effect (CPE) suppression effect confirmation test using HEK293T/ACE2-TMPRSS2 cells; format: cell-based; conditions: Severe acute respiratory syndrome coronavirus 2, HEK-293T, 72 h
[3] = read-out: EC50 (50% SARS-CoV-2 infected cell death inhibitory concentration), class, HEK293T/ACE2-TMPRSS2 cells, CPE suppression, CellTiter-Glo 2.0 after 3 days culture
[4] = read-out: EC50 (50% SARS-CoV-2 infected cell death inhibitory concentration), HEK293T/ACE2-TMPRSS2 cells, CPE suppression, CellTiter-Glo 2.0 after 3 days culture
[5] = HEK293T/ACE2-TMPRSS2 cells, CPE suppression, CellTiter-Glo 2.0 after 3 days culture, read-out: EC50 (50% SARS-CoV-2 infected cell death inhibitory concentration), class

Compound | IC50 [1] [nM] | EC50 [2, 3] [nM] | EC50 [2, 4] [nM] | EC50 [2, 5] [nM]
Cc1cncc(-n2c(=O)c(-c3ccc(F)c(Cl)c3)c(-c3ccc(C(F)(F)F)c(Cl)c3)n(CC#N)c2=O)c1 [Compound I-066] | < 10 | < 100 |  | 
N#CCn1c(N2CCC3(CC2)CNC(=O)O3)c(-c2ccc(F)c(Cl)c2)c(=O)n(-c2cncc(Cl)c2)c1=O [Compound I-067] | < 10 | 100 to 1000 |  | 
CN1CCN(c2c(-c3ccc(F)c(Cl)c3)c(=O)n(-c3cncc(Cl)c3)c(=O)n2CC#N)CC1=O [Compound I-068] | < 10 | < 100 |  | 
N#CCn1c(N2CCC(C(F)(F)F)CC2)c(-c2ccc(F)c(Cl)c2)c(=O)n(-c2cncc(Cl)c2)c1=O [Compound I-069] | < 10 | < 100 |  | 
Cc1cncc(-n2c(=O)c(-c3ccc(F)c(Cl)c3)c(-c3ccc(C4CC4)cc3)n(CC#N)c2=O)c1 [Compound I-071] | < 10 | < 100 |  | 
CC(C)(O)C1CN(c2c(-c3ccc(F)c(Cl)c3)c(=O)n(-c3cncc(Cl)c3)c(=O)n2CC#N)C1 [Compound I-072] | 0.66 |  | 5.21 | 
Cc1cncc(-n2c(=O)c(-c3ccc(F)c(Cl)c3)c(N3CC4(C3)CC(F)(F)C4)n(CC#N)c2=O)c1 [Compound I-073] | < 10 | < 100 |  | 
Cc1cncc(-n2c(=O)c(-c3ccc(F)c(Cl)c3)c(N3Cc4cn[nH]c4C3)n(CC#N)c2=O)c1 [Compound I-074] | < 10 | < 100 |  | 
Cc1cncc(-n2c(=O)c(-c3ccc(F)c(Cl)c3)c(N3Cc4cccnc4C3)n(CC#N)c2=O)c1 [Compound I-075] | < 10 | < 100 |  | 
N#CCn1c(N2CC(F)(C3CC3)C2)c(-c2ccc(F)c(Cl)c2)c(=O)n(-c2cncc(Cl)c2)c1=O [Compound I-076] | < 10 | < 100 |  | 
N#CCn1c(N2CC3(CC3)C2)c(-c2ccc(F)c(Cl)c2)c(=O)n(-c2cncc(Cl)c2)c1=O [Compound I-078] | < 10 | < 100 |  | 
N#CCn1c(N2CC(c3nccs3)C2)c(-c2ccc(F)c(Cl)c2)c(=O)n(-c2cncc(Cl)c2)c1=O [Compound I-079] | < 10 | < 100 |  | 
N#CCn1c(N2C[C@@H]3[C@@H](O)[C@@H]3C2)c(-c2ccc(F)c(Cl)c2)c(=O)n(-c2cncc(Cl)c2)c1=O [Compound I-082] | < 10 | < 100 |  | 
N#CCn1c(N2CC(c3ccccc3)C2)c(-c2ccc(F)c(Cl)c2)c(=O)n(-c2cncc(Cl)c2)c1=O [Compound I-083] | < 10 | < 100 |  | 
CC(C)OC1CN(c2c(-c3ccc(F)c(Cl)c3)c(=O)n(-c3cncc(Cl)c3)c(=O)n2CC#N)C1 [Compound I-084] | < 10 | < 100 |  | 
N#CCn1c(N2CC(N3CCOCC3)C2)c(-c2ccc(F)c(Cl)c2)c(=O)n(-c2cncc(Cl)c2)c1=O [Compound I-085] | < 10 | < 100 |  | 
N#CCn1c(N2CC(C(F)(F)F)C2)c(-c2ccc(F)c(Cl)c2)c(=O)n(-c2cncc(Cl)c2)c1=O [Compound I-086] | 0.7 |  | 3.31 | 
N#CCn1c(N2CCC(O)(C(F)(F)F)CC2)c(-c2ccc(F)c(Cl)c2)c(=O)n(-c2cncc(Cl)c2)c1=O [Compound I-087] | < 10 | < 100 |  | 
Cc1cncc(-n2c(=O)c(Cc3cc(F)c(F)c(F)c3)c(N3CC(F)C3)n(CC#N)c2=O)c1 [Compound I-090] | 10 to 100 |  |  | < 100
Cc1cncc(-n2c(=O)c(Cc3cc(F)c(F)c(F)c3)c(N3CC4(CCOCC4)C3)n(CC#N)c2=O)c1 [Compound I-093] | 10 to 100 |  |  | < 100
Cc1cncc(-n2c(=O)c(Cc3cc(F)c(F)c(F)c3)c(N3CC[C@@H](C(N)=O)C3)n(CC#N)c2=O)c1 [Compound I-096] | < 10 | < 100 |  | 
Cc1cncc(-n2c(=O)c(Cc3cc(F)c(F)c(F)c3)c(N3CCN(C)C(=O)C3)n(CC#N)c2=O)c1 [Compound I-098] | < 10 | < 100 |  | 
Cc1cncc(-n2c(=O)c(Cc3cc(F)c(F)c(F)c3)c(N3CC4(CCOC4)C3)n(CC#N)c2=O)c1 [Compound I-101] | < 10 | < 100 |  | 
Cc1cncc(-n2c(=O)c(Cc3cc(F)c(F)c(F)c3)c(N3CCC(CO)CC3)n(CC#N)c2=O)c1 [Compound I-104] | < 10 | < 100 |  | 
Cc1cncc(-n2c(=O)c(Cc3cc(F)c(F)c(F)c3)c(N3CC4(C3)CC(F)(F)C4)n(CC#N)c2=O)c1 [Compound I-105] | < 10 | < 100 |  | 
COC1CCN(c2c(Cc3cc(F)c(F)c(F)c3)c(=O)n(-c3cncc(C)c3)c(=O)n2CC#N)CC1 [Compound I-106] | < 10 | < 100 |  | 
Cc1cncc(-n2c(=O)c(Cc3cc(F)c(F)c(F)c3)c(N3CCC(C)(O)CC3)n(CC#N)c2=O)c1 [Compound I-109] | < 10 | < 100 |  | 
